From PMC6612245 (Journal of the American Chemical Society, 2019)

How the values were obtained:
Assay type in all cases: biochemical
ForC = biological target: T1, ForC (Streptomyces kaniharaensis, UniProt A0A5S9FY43); assay: anion exchange HPLC, substrate consumption; conditions: L-aspartate and ATP; 4 h
T1 sequence (A0A5S9FY43 1-333): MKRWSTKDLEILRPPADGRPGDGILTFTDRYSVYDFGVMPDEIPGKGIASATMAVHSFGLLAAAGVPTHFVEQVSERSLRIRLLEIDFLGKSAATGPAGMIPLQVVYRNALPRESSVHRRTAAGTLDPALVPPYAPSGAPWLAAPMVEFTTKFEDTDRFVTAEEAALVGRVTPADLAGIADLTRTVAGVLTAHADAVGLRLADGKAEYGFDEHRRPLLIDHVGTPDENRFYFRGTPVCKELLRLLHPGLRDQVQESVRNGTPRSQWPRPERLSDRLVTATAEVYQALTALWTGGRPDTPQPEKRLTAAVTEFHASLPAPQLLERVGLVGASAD

SkPurH = biological target: T2, SkPurH (Streptomyces kaniharaensis, UniProt A0A6N7KQI7); assay: HPLC of product 6b; conditions: N10-formyl-THF; formylation without cyclization; 1 h
T2 sequence (A0A6N7KQI7 24-525): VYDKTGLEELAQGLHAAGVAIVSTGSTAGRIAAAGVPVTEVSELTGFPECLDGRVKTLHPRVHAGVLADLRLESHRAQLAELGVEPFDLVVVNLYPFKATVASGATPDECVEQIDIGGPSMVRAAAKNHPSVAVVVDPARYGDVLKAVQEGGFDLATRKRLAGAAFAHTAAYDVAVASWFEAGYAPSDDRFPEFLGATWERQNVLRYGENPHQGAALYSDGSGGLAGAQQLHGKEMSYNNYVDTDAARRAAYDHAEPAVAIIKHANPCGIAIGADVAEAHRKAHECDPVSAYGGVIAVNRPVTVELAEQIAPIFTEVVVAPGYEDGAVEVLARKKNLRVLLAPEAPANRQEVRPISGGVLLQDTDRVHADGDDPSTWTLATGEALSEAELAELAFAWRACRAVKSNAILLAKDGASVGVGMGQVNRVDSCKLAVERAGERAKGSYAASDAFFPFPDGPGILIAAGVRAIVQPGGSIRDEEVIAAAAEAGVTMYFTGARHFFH

EcPurH [1] = biological target: T3, EcPurH (Escherichia coli, UniProt P15639); assay: enzymatic preparation of 6b; conditions: formylation to 6b
T3 sequence (P15639 whole entry): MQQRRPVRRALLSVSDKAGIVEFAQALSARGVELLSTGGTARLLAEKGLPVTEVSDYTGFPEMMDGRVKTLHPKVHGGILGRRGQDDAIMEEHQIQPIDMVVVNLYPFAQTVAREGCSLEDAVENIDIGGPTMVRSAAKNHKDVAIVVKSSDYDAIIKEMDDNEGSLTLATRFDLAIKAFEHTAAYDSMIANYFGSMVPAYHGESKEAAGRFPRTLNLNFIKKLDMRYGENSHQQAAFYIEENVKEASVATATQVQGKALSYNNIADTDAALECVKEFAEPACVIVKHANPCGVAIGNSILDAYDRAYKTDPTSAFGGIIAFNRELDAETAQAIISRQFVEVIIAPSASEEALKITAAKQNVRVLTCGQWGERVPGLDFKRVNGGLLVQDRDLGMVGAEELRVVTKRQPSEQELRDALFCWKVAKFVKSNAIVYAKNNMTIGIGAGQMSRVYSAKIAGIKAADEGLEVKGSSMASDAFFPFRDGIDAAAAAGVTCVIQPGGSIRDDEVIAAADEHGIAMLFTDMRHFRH

EcPurH [2] = biological target: T3, EcPurH; assay: HPLC; conditions: cyclization to 7a
ForH [3] = biological target: T4, ForH (Streptomyces kaniharaensis, UniProt A0A4V8H038); assay: HPLC of product 7a; conditions: cyclization to 7a; 10 min incubation
ForH [4] = biological target: T4, ForH; assay: HPLC of product 7b; conditions: cyclization to 7b; 10 min incubation

For Nc1c([C@@H]2O[C@H](COP(=O)(O)O)[C@@H](O)[C@H]2O)n[nH]c1C(=O)O [3b], the “anion exchange HPLC, substrate consumption” value (ForC) was “Incubation of 3b with ForC along with L-aspartate and ATP led to the production”.
With NC(=O)c1[nH]nc([C@@H]2O[C@H](COP(=O)(O)O)[C@@H](O)[C@H]2O)c1N [5b] the “HPLC of product 6b” value (SkPurH) was “incubation of 5b with S. kaniharaensis PurH (SkPurH) resulted in formylation of the pyrazolic amide” and the “enzymatic preparation of 6b” value (EcPurH [1]) was 6b was enzymatically prepared from 5b using E. coli PurH as the catalyst.
With NC(=O)c1ncn([C@@H]2O[C@H](COP(=O)(O)O)[C@@H](O)[C@H]2O)c1NC=O [6a] the “HPLC (supplement)” value (EcPurH [2]) was 6a could be processed to 7a, while 6b could not be converted to 7b and the “HPLC of product 7a” value (ForH [3]) was “ForH demonstrates cyclase activity towards both 6a and 6b”.
For NC(=O)c1[nH]nc([C@@H]2O[C@H](COP(=O)(O)O)[C@@H](O)[C@H]2O)c1NC=O [6b], the “HPLC of product 7b” value (ForH [4]) was “ForH demonstrates cyclase activity towards both 6a and 6b”.
